# Patent publication US20260002950A1, “Uses of 5-Aminovaleric Acid Betaine and Compositions Related Thereto” (Emory University, priority 2021, published 2026)
# Entries after “also recorded” stand apart in the source; their conditions may differ.
# Assays:
# [1] = Concentrations of VB in tissues and circulation of conventional mice (mass spectrometry); type: in vivo; details: endogenous
# From the text: To identify microbial metabolites that could impact mitochondrial function, the metabolome of liver and liver mitochondria was examined in mice with an intact microbiome (“conventionalized” mice in which germ-free mice were reconstituted with microbiome) compared to liver and liver mitochondria from germ-free mice (FIG. 1A). The top discriminatory metabolite has an accurate mass m/z of 160.1332 by ultra-high-resolution mass spectrometry, corresponding to predicted elemental composition C8H18NO2. This metabolite is found in liver and other tissues, portal and peripheral circulation, and cecum of conventional but not germ-free mice (FIG. 1B). Authentic standard co-elution and MS/MS experiments show the identity of 160.1332 m/z to be delta-valerobetaine (VB) (FIG. 1C). Concurrent analyses of propionylcholine and valine betaine, similar molecules with identical elemental compositions, conclusively excluded these structures. VB was not present in the mouse diet and was not detectable in other samples collected from GF mice. […] Concentrations were 9-26 μM in the portal vein, with higher concentrations in the liver (75-190 μmol/kg wet weight) and lower concentrations in the peripheral plasma (2-10 μM) indicating tissue accumulation.
# human HepG2 cells = test: Cell content of carnitine in HepG2 cells, VB dose-response; type: cell-based; details: VB at 10 μM, vs control cells
# Method: (§1) Dose-response experiments with VB were performed in vitro and in vivo to examine metabolic effects of VB. The mitochondrial carnitine shuttle is the top metabolic pathway associated with VB in human HepG2 cells. […] The carnitine shuttle uses carnitine for transport of long-chain fatty acyl chains into mitochondria for fatty acid β-oxidation. […] The effect of VB on inhibition of palmitate-dependent oxygen consumption rate is confirmed by stable isotope tracer studies of palmitate metabolism, which show VB inhibits formation of ^13C16 palmitoylcarnitine from ^13C16 palmitate and decreases the formation of ^13C2 acetyl-CoA (FIG. 2D). […] Thus, VB inhibits mitochondrial long chain fatty acid metabolism through effects on carnitine and operation of the carnitine shuttle.
# HepG2 cells = test: Palmitate-dependent mitochondrial O2 consumption rate in HepG2 cells; type: cell-based, human
# Method: […] Effect of VB is most pronounced in the spare capacity measured after addition of the uncoupler FCCP.
# as §1
# carnitine shuttle = test: Stable isotope tracer study of palmitate metabolism in cultured cells; type: cell-based
# Method: as §1
# mice [2] = test: VB treatment of mice, daily intraperitoneal injection for 1 week: carnitine and metabolite profiles; type: in vivo
# Method: Mice of each sex were given daily intraperitoneal injection with saline (n=5), VB at 10 mg/kg (n=3) or VB at 100 mg/kg (n=8) for 1 week. Kruskal-Wallis test with Dunn's multiple comparisons test to identify pairwise differences in GraphPad Prism 6.0.
# (§2) As observed in cells, the carnitine shuttle is the top metabolic pathway associated with VB-treatment in mice. VB treatment decreases circulating (FIG. 2A), hepatic (FIG. 2B), heart, and brain carnitine. Furthermore, VB treatment alters circulating and systemic acylcarnitine and acyl-CoA profiles. In whole tissue, VB increases hepatic and cardiac palmitoyl-CoA and decreases other short, medium, and long-chain acylcarnitines and CoAs under fasted conditions. In mitochondria, VB decreases the abundance of long-chain fatty acyl-CoAs and carnitines, consistent with a decrease in long-chain fatty acid β oxidation. VB also decreases circulating and hepatic β-hydroxybutyrate, a product of mitochondrial β-fatty acid oxidation.
# mice [3] = test: VB treatment of mice for 3 days ± fasting: hepatic lipid accumulation; type: in vivo
# Method: Mice of each sex were given daily intraperitoneal injection with saline (n=5) or VB at 100 mg/kg (n=5) for 3 days±fasting.
# as §2
# conventional mice = test: 8-week VB treatment of conventional mice on Western or control diet: adiposity; type: in vivo
# From the text: (n=5 per group, one-tailed t-test).
# The relative increases are most pronounced in VAT, where fat mass in VB-treated mice on a Western diet was increased 80% in male mice and 60% in female mice compared to Western diet alone. […] The long-term consequences of VB inhibition of mitochondrial β-oxidation of fatty acids therefore include effects on body composition in mice receiving Western diet, with specific and pronounced effects on visceral adipose tissue mass.
# (§3) VB effects in fasting are particularly intriguing as a mechanism causing obesity because decreasing mitochondrial β-oxidation of lipids mobilized from adipose tissue during fasting could cause a long-term increase in fat deposition. Therefore, experiments were performed to determine whether long-term VB treatment could increase weight gain and adiposity in mice. This was tested this in both GF and conventional mice, with or without a high-fat/sugar WD. Backhead et al. report a resistance to diet-induced obesity in germ-free mice. PNSA, 104 (3), 2007. […] Furthermore, VB treatment exacerbated the development of hepatic steatosis in these mice (FIG. 4E). Similarly, VB increased adipose tissue fat mass (VAT, SubQ, BAT) in conventional mice after 8 weeks with the WD. The relative increases were most pronounced in white adipose compartments (VAT, SubQ) where fat mass in VB treated GF and conventional mice on a WD was increased over 80% compared to WD alone.
# (§4) Although WD-fed mice gained more weight than control fed mice, no differences in circulating VB were observed between WD or control-diet-fed conventional mice. These effects were not observed in GF or conventional mice fed the control diet.
# GF mice = test: 6-week VB treatment of germ-free (GF) mice on Western or control diet; type: in vivo
# Method: FIG. 4A illustrates experiments on long-term VB treatment in GF mice. Male GF mice were administered PBS or VB in conjunction with a control diet (CD) or WD for 6 weeks with body weight recorded as percentage weight gain (two-way repeat measures ANOVA with multiple comparisons per day.
# as §3, §4
# PPAR-response element = test: PPAR-response element-linked luciferase activity; type: cell-based
# From the text: An alternative interpretation of VB activity involves an adaptive response termed mitohormesis, a process by which a minor impairment increases gene expression of mitochondrial systems which improve metabolic function of mitochondria. […] With this interpretation, VB-induced lipid accumulation could drive activity of SIRT1, PGC-1a and PPAR-a pathways which control carnitine homeostasis, mitochondrial bioenergetics, and lipid metabolism. […] Thus, VB may function through a mitohormesis response mechanism and in conjunction with diet and aging, contribute to age dependent changes in adiposity.
# mouse cardiomyocytes = details: cited from earlier work
# [4] = biological target: T1, γ-butyrobetaine hydroxylase (Homo sapiens, UniProt O75936); details: cited from earlier work
# T1 sequence (O75936 1-387): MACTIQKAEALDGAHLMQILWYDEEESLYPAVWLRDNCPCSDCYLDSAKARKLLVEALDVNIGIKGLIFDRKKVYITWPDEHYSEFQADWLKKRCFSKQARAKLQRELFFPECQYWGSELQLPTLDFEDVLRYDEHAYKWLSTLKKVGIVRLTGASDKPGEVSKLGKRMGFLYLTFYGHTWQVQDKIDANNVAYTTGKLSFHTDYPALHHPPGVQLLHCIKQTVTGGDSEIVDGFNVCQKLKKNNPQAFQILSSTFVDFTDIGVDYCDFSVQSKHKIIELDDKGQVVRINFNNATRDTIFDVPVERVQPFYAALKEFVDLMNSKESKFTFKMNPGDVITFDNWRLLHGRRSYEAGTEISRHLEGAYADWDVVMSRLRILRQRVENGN
# mice [5] = details: cited from earlier work
smiles,measurement,setting,value
"C[N+](C)(C)CCCCC(=O)[O-] [VB, 5-(trimethylammonio) pentanoate]",Concentration of VB in the cecum,[1],millimolar range
same,Concentration of VB in the liver,[1],75-190 μmol/kg wet weight
same,Concentration of VB in the peripheral plasma,[1],2 to 10 µM
same,Concentration of VB in the portal vein,[1],9 to 26 µM
same,Concentration of VB in the colon,[1]; relative to cecum,somewhat lower concentrations
same,Cell content of carnitine,human HepG2 cells,decreased to half that of control cells
same,Palmitate-dependent mitochondrial oxygen respiration (O2 consumption rate),"HepG2 cells; HepG2, 12 h without glucose, glutamine and pyruvate (mimicking fasting), VB 10 or 50 μM",inhibited; also recorded: dose-dependent decrease
same,"Basal, ADP-linked O2 consumption rate, spare capacity, non-mitochondrial respiration","HepG2 cells; glucose, glutamine and pyruvate present at high concentration in culture media",little decrease
same,Formation of 13C16 palmitoylcarnitine from 13C16 palmitate,carnitine shuttle; cultured cells,inhibits
same,Formation of 13C2 acetyl-CoA from labeled palmitate,"carnitine shuttle; cultured cells, n=3",decreases
same,Circulating and hepatic β-hydroxybutyrate,mice [2],decreases
same,Circulating carnitine,"mice [2]; VB 10 or 100 mg/kg i.p. daily, 1 week",decreases
same,Brain carnitine,mice [2]; VB treatment,decreases
same,Heart carnitine,mice [2]; VB treatment,decreases
same,Hepatic carnitine,mice [2]; VB treatment,decreases
same,"Triacylglycerol and diacylglycerol species in liver, heart and brain",mice [2]; lipid profiling,increases
same,Abundance of long-chain fatty acyl-CoAs and carnitines in mitochondria,mice [2]; mitochondria,decreases
same,Liver triglycerides (hepatic steatosis),"mice [3]; male and female mice, VB 100 mg/kg i.p. 3 days, fasted",exacerbates hepatic steatosis; also recorded: increase
same,"Liver lipid deposits, Oil Red O staining","mice [3]; mice, especially under fasted conditions",increases lipid deposits
same,Hepatic and cardiac palmitoyl-CoA,"mice [3]; mice, whole tissue, fasted conditions",increases
same,Weight of brown adipose tissue (BAT),conventional mice; 8 weeks,increased by VB in a diet dependent manner after 8-week VB treatment in males but not females; also recorded: increases brown adipose tissue (BAT) but in a less consistent manner
same,Weight of subcutaneous white adipose tissue (WAT),"conventional mice; Western diet, 8 weeks",increased by VB in a diet-dependent manner; also recorded: substantial increases
same,Weight of visceral adipose tissue (VAT),"conventional mice; Western diet, 8 weeks",increased by VB in a diet dependent manner; also recorded: substantial increases
same,"Increase of fat mass in white adipose compartments (VAT, SubQ) vs WD alone",conventional mice; conventional mice on WD,over 80%
same,"Adipose tissue fat mass (VAT, SubQ, BAT)","conventional mice; conventional mice, WD, 8 weeks",increased
same,Severity of hepatic steatosis,"conventional mice; conventional mice, Western diet, 8 weeks",Trends for increase
same,Total body mass,"conventional mice; conventional mice, Western diet, after 8 weeks, not p<0.05",Trends for increase
same,"Effects on adiposity, steatosis and body mass on control diet","conventional mice; conventional mice, control diet",not observed
same,Increase of visceral adipose tissue (VAT) fat mass vs Western diet alone,"conventional mice; female mice, Western diet, 8 weeks",60%
same,Increase of visceral adipose tissue (VAT) fat mass vs Western diet alone,"conventional mice; male mice, Western diet, 8 weeks",80%
same,Carnitine concentrations after parenteral VB dosing,GF mice; GF mice,equivalent to conventional mice
same,"Increase of fat mass in white adipose compartments (VAT, SubQ) vs WD alone",GF mice; GF mice on WD,over 80%
same,"Adipose tissue fat mass in VAT, SubQ and BAT compartments vs WD alone","GF mice; GF mice, WD, six weeks",substantial increases
same,Weight gain,"GF mice; GF mice, WD, six weeks",increased weight gain
same,Development of hepatic steatosis,"GF mice; GF mice, WD, six weeks, liver H&E scoring",exacerbated
same,"Effects on adiposity, steatosis and body mass on control diet","GF mice; GF mice, control diet",not observed
same,PPAR-response element-linked luciferase activity,PPAR-response element,dose-dependent increase
same,β-oxidation of fatty acids,mouse cardiomyocytes,decreases
same,γ-butyrobetaine hydroxylase activity,[4],inhibits
same,Fatty liver,mice [5],exacerbates
"C[N+](C)(C)CC(O)CC(=O)[O-] (centres unmarked) [carnitine, reference compound]",Rescue of VB effect on cellular carnitine and palmitoylcarnitine formation,carnitine shuttle; addition of carnitine to VB-treated cells,restores cellular carnitine and formation of palmitoylcarnitine
